Laboratory results: patent US20060223994A1, “Novel polymorph of Quetiapine fumarate and a process for its preparation” (Divi's Laboratories Limited, priority 2005, published 2006)

Columns and labels:
[1] = Stability on melting and cooling (air; NMR, IR, HPLC comparison)
[2] = Stability of Form IV under grinding (powder XRD and FT-IR after grinding); conditions: ground in glass pestle and mortar for 15 min

SMILES: OCCOCCN1CCN(C2=Nc3ccccc3Sc3ccccc32)CC1 [Form IV]
- chemical nature after heating ([1]; confirmed by NMR, IR, HPLC retention time and assay versus sample prepared per U.S. Pat. No. 4,879,288): does not also alter its chemical nature
- oxidative degradation on melting and cooling ([1]; melting and cooling in air): no significant degradation
- XRD pattern and FT-IR spectrum of the material after grinding [2]: identical to the form IV
